# Where two headings read alike, the source gives them in different places.
# Legend:
# [1] = biological target: T1, SMARCA2-NanoLuc (Homo sapiens, UniProt P51531); assay: NanoBRET target engagement assay, live and permeabilized HEK293 cells (SMARCA2); type: cell-based; details: SMARCA2 NanoBRET TE
# T1 construct: expressed in transfected cells; host or cells: HEK293
# Method: We employed a NanoBRET-based target engagement (TE) assay as reported earlier^7 for evaluating PROTACs relative permeability. In summary, live and permeabilized HEK293 cells with SMARCA2 or BRD4-NanoLuc were used for measuring IC50 values of different PROTACs. The relative shift in the IC50 was evaluated as relative binding affinity (RBA) by taking the ratio of IC50 values of live and permeabilized cells. Availability index (AI), which is a surrogate for permeability can be calculated by taking a ratio of RBA of compounds to permeable benchmark molecules. We used SMARCA bromodomain binding ligand^8 for SMARCA2 PROTACs and JQ1^9, 10 for BRD4 PROTACs as benchmark molecules.
# Relative Binding Affinity (RBA) = Live-cell TE IC50 / Permeabilized-cell TE IC50
# Availability Index (AI) = RBAtest cmpd / RBApermeable benchmark
# Availability Index (AI) greater than one is indicative of reduced permeability compared to the benchmark.
# [2] = biological target: T2, SMARCA2 (Homo sapiens, UniProt P51531); assay: SMARCA2 degradation, MSD assay, dose response; type: cell-based; parameters: key to AUC (area under the dose-response curve): sum of trapezoids of POC vs dose points, h = 1; details: for Dmax: A-375, SMARCA2 degraded; for Dmax / DC50: MSD assay, 2 h timepoint; for Dmax / AUC (area under the dose-response curve) / DC50: A375 cells; for AUC (area under the dose-response curve): SMARCA2 MSD assay, 2 h; for DC50: SMARCA2 degradation
# T2 construct: endogenous in cells; host or cells: A375
# Method: A375 cells were treated with SMARCA2 or BRD4 degraders for 2 h (4 h for BRD4) and generated lysates. SMARCA2 or BRD4 protein was measured with a variation of a sandwich ELISA that was assembled from commercially available antibodies as well as reagents and instrumentation procured from Meso Scale Discovery (MSD). Degradation parameter, DC50, is not suitable for PROTACs that induce partial/incomplete DR curves at a fixed time point; maximum drop in target protein level (Dmax) >>0. Conversely, the area under the curve (AUC) can be calculated as a degradation activity parameter for any DR curve, and it encompasses both the degradation potency (i.e., DC50) and efficacy (i.e., Dmax) of PROTACs.
# A 1:3 compound dose-response titration was diluted in growth media (1:20), added to appropriate wells of a cell culture plate (1:10) and then assay plates were incubated at 37 °C, 5% CO2.
# Plates were washed with 300 µL per well MSD wash buffer (MSD R61TX-1) between each step. Following the last incubation, plates were washed with MSD wash buffer then 150 µL of MSD read buffer (MSD R92TC-2) was added to each well. Plates were immediately read on a MSD plate reader (MSD Sector Imager 6000).
# MSD electrochemiluminescence signals were subtracted by the average background signal from wells with lysis buffer alone. Normalized MSD values (POC) for individual compound treated wells were acquired by dividing background-subtracted assay signal by signal from vehicle control wells (cells + 0.1% DMSO) and multiplying by 100. This POC data was graphed using a nonlinear regression curve fit xy analysis and a log(inhibitor) vs response —variable slope (four parameter) model for dose response curves (Graphpad Prism 9, San Diego, CA, USA). To calculate area under the curve, all points on the curve were connected and vertical lines were drawn from each point down to y = 0, generating a series of trapezoids. The area of each trapezoid was determined using the equation A = (1/2)(h)(b1 + b2), where h = 1 (distance between points), b1 = POC of the first point and b2 = POC of the second point. The sum of all trapezoids provides an approximate area under the curve (AUC). For half-life (t1/2) determination in time course studies, a one-phase decay model was used for curve fitting and the time at which the curve crossed 50 POC was determined through interpolation (Graphpad Prism 9, San Diego, CA, USA).
# [3] = live HEK293 cells, read-out: Live-Cell TE IC50
# [4] = permeabilized HEK293 cells, read-out: Permeabilized-Cell TE IC50
# T2 sequence (P51531 whole entry): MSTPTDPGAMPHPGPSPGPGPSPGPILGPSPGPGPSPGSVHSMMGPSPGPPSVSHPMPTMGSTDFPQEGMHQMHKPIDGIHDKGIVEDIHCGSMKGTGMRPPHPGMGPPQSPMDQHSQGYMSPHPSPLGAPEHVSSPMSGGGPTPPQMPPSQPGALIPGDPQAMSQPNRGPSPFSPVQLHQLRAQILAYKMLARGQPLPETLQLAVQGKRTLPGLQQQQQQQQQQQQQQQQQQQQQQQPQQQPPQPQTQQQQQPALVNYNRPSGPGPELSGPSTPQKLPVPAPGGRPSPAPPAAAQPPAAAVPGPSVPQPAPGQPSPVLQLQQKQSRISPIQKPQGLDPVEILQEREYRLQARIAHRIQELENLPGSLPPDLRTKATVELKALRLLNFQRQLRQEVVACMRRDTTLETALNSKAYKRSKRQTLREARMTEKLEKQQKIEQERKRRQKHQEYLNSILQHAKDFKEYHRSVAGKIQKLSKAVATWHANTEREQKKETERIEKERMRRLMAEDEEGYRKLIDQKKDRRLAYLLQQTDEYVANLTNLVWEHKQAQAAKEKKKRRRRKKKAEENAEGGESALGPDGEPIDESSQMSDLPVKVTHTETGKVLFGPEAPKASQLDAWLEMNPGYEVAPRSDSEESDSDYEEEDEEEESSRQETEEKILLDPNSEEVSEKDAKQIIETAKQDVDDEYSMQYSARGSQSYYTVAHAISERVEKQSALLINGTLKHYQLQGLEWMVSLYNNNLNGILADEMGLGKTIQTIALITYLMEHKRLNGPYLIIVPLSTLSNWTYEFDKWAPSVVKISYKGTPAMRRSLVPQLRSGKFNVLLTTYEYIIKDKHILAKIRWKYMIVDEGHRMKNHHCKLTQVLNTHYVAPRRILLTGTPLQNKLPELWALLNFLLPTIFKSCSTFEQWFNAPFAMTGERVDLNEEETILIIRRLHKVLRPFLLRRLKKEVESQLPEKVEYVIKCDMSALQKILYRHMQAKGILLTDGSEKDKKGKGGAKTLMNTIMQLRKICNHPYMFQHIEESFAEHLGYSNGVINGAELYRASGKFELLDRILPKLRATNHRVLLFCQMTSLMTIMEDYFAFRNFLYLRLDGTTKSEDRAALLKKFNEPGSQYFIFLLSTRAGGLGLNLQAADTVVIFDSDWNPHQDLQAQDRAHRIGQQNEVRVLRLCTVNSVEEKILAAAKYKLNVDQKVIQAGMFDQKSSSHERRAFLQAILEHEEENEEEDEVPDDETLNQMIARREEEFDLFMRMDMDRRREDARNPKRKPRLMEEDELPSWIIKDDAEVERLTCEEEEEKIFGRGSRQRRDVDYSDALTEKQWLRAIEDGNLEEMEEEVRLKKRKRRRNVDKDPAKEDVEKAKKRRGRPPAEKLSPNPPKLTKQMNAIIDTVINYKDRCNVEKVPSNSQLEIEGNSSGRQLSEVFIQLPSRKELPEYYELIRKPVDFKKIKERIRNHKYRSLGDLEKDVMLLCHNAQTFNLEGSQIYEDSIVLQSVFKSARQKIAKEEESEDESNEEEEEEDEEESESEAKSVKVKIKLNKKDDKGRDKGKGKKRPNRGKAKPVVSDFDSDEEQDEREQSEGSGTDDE
# T1 sequence (P51531 whole entry): as above
SMILES,"IC50 [1, 3]","IC50 [1, 4]",Dmax [2],AUC (area under the dose-response curve) [2],DC50 [2],SMARCA2 degradation ([2]; 2 h MSD assay)
"Cc1ncsc1-c1ccc(CNC(=O)C2C[C@@H](O)CN2C(=O)C(NC(=O)C2(F)CC2)C(C)(C)C)c(OCCc2ccc(CN3CCN(c4cc(-c5ccccc5O)nnc4N)CC3)cc2)c1 (stereo in doubt) [Compound 11, (2R,4R)-N-(2-(4-((4-(3-amino-6-(2-hydroxyphenyl)pyridazin-4-yl)piperazin-1-yl)methyl)phenethoxy)-4-(4-methylthiazol-5-yl)benzyl)-1-((R)-2-(1-fluorocyclopropane-1-carboxamido)-3,3-dimethylbutanoyl)-4-hydroxypyrrolidine-2-carboxamide, reference compound]",980 nM,740 nM,53%,119,221 nM,
"Cc1ncsc1-c1ccc([C@H](C)NC(=O)[C@@H]2C[C@@H](O)CN2C(=O)[C@@H](NC(=O)c2ccnc(N3CCN(c4cc(-c5ccccc5O)nnc4N)CC3)c2)C(C)(C)C)cc1 [Compound 1, 2-(4-(3-Amino-6-(2-hydroxyphenyl)pyridazin-4-yl)piperazin-1-yl)-N-((S)-1-((2S,4R)-4-hydroxy-2-(((S)-1-(4-(4-methylthiazol-5-yl)phenyl)ethyl)carbamoyl)pyrrolidin-1-yl)-3,3-dimethyl-1-oxobutan-2-yl)isonicotinamide]",200 nM,150 nM,98%,13,28 nM,
"Cc1ncsc1-c1ccc([C@H](C)NC(=O)[C@@H]2C[C@@H](O)CN2C(=O)[C@@H](NC(=O)c2cccc(N3CCN(c4cc(-c5ccccc5O)nnc4N)CC3)n2)C(C)(C)C)cc1 [Compound 2, 6-(4-(3-Amino-6-(2-hydroxyphenyl)pyridazin-4-yl)piperazin-1-yl)-N-((S)-1-((2S,4R)-4-hydroxy-2-(((S)-1-(4-(4-methylthiazol-5-yl)phenyl)ethyl)carbamoyl)pyrrolidin-1-yl)-3,3-dimethyl-1-oxobutan-2-yl)picolinamide]",400 nM,200 nM,95%,28,95 nM,
"Cc1ncsc1-c1ccc([C@H](C)NC(=O)[C@@H]2C[C@@H](O)CN2C(=O)[C@@H](NC(=O)c2cccc(N3CCN(c4cc(-c5ccccc5O)nnc4N)CC3)c2)C(C)(C)C)cc1 [Compound 4, (2S,4R)-1-((S)-2-(3-(4-(3-Amino-6-(2-hydroxyphenyl)pyridazin-4-yl)piperazin-1-yl)benzamido)-3,3-dimethylbutanoyl)-4-hydroxy-N-((S)-1-(4-(4-methylthiazol-5-yl)phenyl)ethyl)pyrrolidine-2-carboxamide]",820 nM,750 nM,96%,26,99 nM,
"Cc1ncsc1-c1ccc([C@H](C)NC(=O)[C@@H]2C[C@@H](O)CN2C(=O)[C@@H](NC(=O)c2csc(N3CCN(c4cc(-c5ccccc5O)nnc4N)CC3)n2)C(C)(C)C)cc1 [Compound 5, 2-(4-(3-Amino-6-(2-hydroxyphenyl)pyridazin-4-yl)piperazin-1-yl)-N-((S)-1-((2S,4R)-4-hydroxy-2-(((S)-1-(4-(4-methylthiazol-5-yl)phenyl)ethyl)carbamoyl)pyrrolidin-1-yl)-3,3-dimethyl-1-oxobutan-2-yl)thiazole-4-carboxamide]",1260 nM,400 nM,96%,28,112 nM,
"Cc1ncsc1-c1ccc([C@H](C)NC(=O)[C@@H]2C[C@@H](O)CN2C(=O)[C@@H](NC(=O)CN2CCN(c3cc(-c4ccccc4O)nnc3N)CC2)C(C)(C)C)cc1 [Compound 6, (2S,4R)-1-((S)-2-(2-(4-(3-Amino-6-(2-hydroxyphenyl)pyridazin-4-yl)piperazin-1-yl)acetamido)-3,3-dimethylbutanoyl)-4-hydroxy-N-((S)-1-(4-(4-methylthiazol-5-yl)phenyl)ethyl)pyrrolidine-2-carboxamide, reference compound]",1410 nM,90 nM,96%,26,85 nM,
"Cc1ncsc1-c1ccc([C@H](C)NC(=O)[C@@H]2C[C@@H](O)CN2C(=O)[C@@H](NC(=O)Cc2ccnc(N3CCN(c4cc(-c5ccccc5O)nnc4N)CC3)c2)C(C)(C)C)cc1 [Compound 7, (2S,4R)-1-((S)-2-(2-(2-(4-(3-Amino-6-(2-hydroxyphenyl)pyridazin-4-yl)piperazin-1-yl)pyridin-4-yl)acetamido)-3,3-dimethylbutanoyl)-4-hydroxy-N-((S)-1-(4-(4-methylthiazol-5-yl)phenyl)ethyl)pyrrolidine-2-carboxamide]",690 nM,210 nM,55%,122,850 nM,
"Cc1ncsc1-c1ccc([C@H](C)NC(=O)[C@@H]2C[C@@H](O)CN2C(=O)[C@@H](NC(=O)CCc2ccnc(N3CCN(c4cc(-c5ccccc5O)nnc4N)CC3)c2)C(C)(C)C)cc1 [Compound 8, (2S,4R)-1-((S)-2-(3-(2-(4-(3-Amino-6-(2-hydroxyphenyl)pyridazin-4-yl)piperazin-1-yl)pyridin-4-yl)propanamido)-3,3-dimethylbutanoyl)-4-hydroxy-N-((S)-1-(4-(4-methylthiazol-5-yl)phenyl)ethyl)pyrrolidine-2-carboxamide]",600 nM,50 nM,80%,75,379 nM,
"Cc1ncsc1-c1ccc([C@H](C)NC(=O)[C@@H]2C[C@@H](O)CN2C(=O)[C@@H](NC(=O)c2ccnc(N3CCN(c4cnnc(-c5ccccc5O)c4)CC3)c2)C(C)(C)C)cc1 [Compound 10, N-((S)-1-((2S,4R)-4-Hydroxy-2-(((S)-1-(4-(4-methylthiazol-5-yl)phenyl)ethyl)carbamoyl)pyrrolidin-1-yl)-3,3-dimethyl-1-oxobutan-2-yl)-2-(4-(6-(2-hydroxyphenyl)pyridazin-4-yl)piperazin-1-yl)isonicotinamide]",2370 nM,5040 nM,65%,100,469 nM,~ 30%
